Source: patent publication US7939534B2, “Certain chemical entities, compositions, and methods” (Cytokinetics, Inc., priority 2006, dated 2011)
Where “and” joins values, the source holds several entries; their conditions need not be identical. Identical values can stand only once.

Target: T1, chicken gizzard smooth muscle myosin subfragment-1 chemically crosslinked to either cardiac or skeletal actin (Gallus gallus, UniProt P10587)
T1 construct: chicken gizzard smooth muscle myosin subfragment-1; from tissue; host or cells: chicken gizzard
Experiment: Dose dependent smooth muscle myosin ATPase modulation (pyruvate kinase/horseradish peroxidase/pyruvate oxidase-coupled ATPase assay)
Assay type: biochemical
Details: read-out: IC50 Arithmetic Mean
Method: In Vitro Model of Dose Dependent Smooth Muscle Myosin Atpase Modulation
Screening assays were performed using a pyruvate kinase and lactate dehydrogenase-coupled ATPase assay containing the following reagents: Potassium PIPES (50 mM ), MgCl2 (3 mM ), KCl (100 mM ), ATP (0.15 mM ), DTT (1 mM ), BSA (0.1 mg/ml), NADH (0.5 mM ), PEP (1.5 mM ), pyruvate kinase (4 U/ml), lactate dehydrogenase (8 U/ml), and antifoam (50 ppm) (concentrations expressed are final assay concentrations). The pH was adjusted to 6.80 at 22° C. by addition of potassium hydroxide. Lead optimization assays were performed with a more sensitive pyruvate kinase/horseradish peroxidase/pyruvate oxidase-coupled ATPase assay containing the following reagents: Potassium PIPES (12 mM ), MgCl2 (2 mM ), KCl (100 mM ), ATP (0.15 mM ), BSA (0.05 mg/ml), potassium phosphate (2 mM ), amplex red (0.1 mM ), PEP (0.1 mM ), pyruvate kinase (4 U/ml), horseradish peroxidase (0.5 U/ml), pyruvate oxidase (0.5 U/ml), and antifoam (50 ppm) (concentrations expressed are final assay concentrations). The pH was adjusted to 7.00 at 22° C. by addition of potassium hydroxide.
The protein components specific to this assay are chicken gizzard smooth muscle myosin subfragment-1 that has been chemically crosslinked to either cardiac or skeletal actin using an excess of 1-Ethyl-3-[3-dimethylaminopropyl]carbodiimide hydrochloride and N-hydroxysuccinimide. The exact concentration of the crosslinked smooth muscle myosin in the assay is determined empirically, by titration to achieve a desired rate of ATP hydrolysis. The concentration varies between protein preparations due to variations in the fraction of active molecules in each preparation.
Compound dose response assays are performed by first preparing a dilution series of test compound, each with an assay mixture containing potassium PIPES, MgCl2, KCl, ATP, BSA, potassium phosphate, amplex red, PEP, crosslinked smooth muscle actomyosin (subfragment-1), antifoam, and water. The assay is started by adding an equal volume of solution containing potassium Pipes, MgCl2, KCl, BSA, potassium phosphate, pyruvate kinase, horseradish peroxidase, pyruvate oxidase, antifoam, and water. ATP hydrolysis is monitored by measuring the fluorescence of amplex red (excitation at 480 nm, emission at 615 nm). The resulting dose response curve is fit by the 4 parameter equation y=Bottom+((Top−Bottom)/(1+((IC50/X)^Hill))). The IC50 is defined as the concentration at which ATPase activity is midway between the top and bottom of the dose response curve.

## CNC(=O)CNC(=O)c1ccc(N2CCC(F)C2)nc1NCCc1cccc(F)c1 (stereo in doubt) [Compound 93, 2-[(6-((3S)-3-fluoropyrrolidinyl)-2-{[2-(3-fluorophenyl)ethyl]amino}(3-pyridyl))carbonylamino]-N-methylacetamide]
  IC50: 1.06 µM

## O=C(NCc1cccnc1)c1ccc(N2CCCC(O)C2)nc1NCCc1cccc(F)c1 (stereo in doubt) [Compound 117, (6-((3S)-3-hydroxypiperidyl)-2-{[2-(3-fluorophenyl)ethyl]amino}(3-pyridyl))-N-(3-pyridylmethyl)carboxamide]
  IC50: 0.515 µM

## CNC(=O)CNC(=O)c1ccc(N2CC[C@@H](O)C2)nc1NCCc1cccc(F)c1 [2-[(6-((3R)-3-hydroxypyrrolidinyl)-2-{[2-(3-fluorophenyl)ethyl]amino}(3-pyridyl))carbonylamino]-N-methylacetamide]
  IC50: 3.44 µM and 3.69 µM

## O=C(NCc1cccnc1)c1ccc(N2CCCCC2)nc1NCCc1cccc(F)c1 [Compound 0, (2-{[2-(3-fluorophenyl)ethyl]amino}-6-piperidyl(3-pyridyl))-N-(3-pyridylmethyl)carboxamide]
  IC50: 0.371 µM

## CC(=O)NC[C@@H]1CCN(c2ccc(C(=O)NCc3cccnc3)c(NCCc3cccc(F)c3)n2)C1 [Compound 1, N-{[(3S)-1-(6-{[2-(3-fluorophenyl)ethyl]amino}-5-[N-(3-pyridylmethyl)carbamoyl](2-pyridyl))pyrrolidin-3-yl]methyl}acetamide]
  IC50: 3.77 µM

## NC(=O)CNC(=O)c1ccc(N2CC[C@@H](O)C2)nc1NCCc1cccc(F)c1 [Compound 2, (6-((3R)-3-hydroxypyrrolidinyl)-2-{[2-(3-fluorophenyl)ethyl]amino}(3-pyridyl))-N-(carbamoylmethyl)carboxamide]
  IC50: 11.4 µM

## CN(C)C(=O)c1ccc(N2CC[C@@H](O)C2)nc1NCCc1cccc(F)c1 [Compound 4, (6-((3R)-3-hydroxypyrrolidinyl)-2-{[2-(3-fluorophenyl)ethyl]amino}(3-pyridyl))-N,N-dimethylcarboxamide]
  IC50: 71.3 µM

## NC(=O)CNC(=O)c1ccc(N2CCCC2)nc1NCCc1cccc(F)c1 [Compound 5, N-(carbamoylmethyl)(2-{[2-(3-fluorophenyl)ethyl]amino}-6-pyrrolidinyl(3-pyridyl))carboxamide]
  IC50: 1.46 µM

## O=C(NCc1cccnc1)c1ccc(N2CC[C@@H](CO)C2)nc1NCCc1cccc(F)c1 [Compound 6, (6-[(3R)-3-(hydroxymethyl)pyrrolidinyl]-2-{[2-(3-fluorophenyl)ethyl]amino}(3-pyridyl))-N-(3-pyridylmethyl)carboxamide]
  IC50: 0.311 µM

## CNC[C@@H]1CCN(c2ccc(C(=O)NCc3cccnc3)c(NCCc3cccc(F)c3)n2)C1 [Compound 7, (6-{(3S)-3-[(methylamino)methyl]pyrrolidinyl}-2-{[2-(3-fluorophenyl)ethyl]amino}(3-pyridyl))-N-(3-pyridylmethyl)carboxamide]
  IC50: 64.8 µM

## CC(=O)N(C)C[C@@H]1CCN(c2ccc(C(=O)NCc3cccnc3)c(NCCc3cccc(F)c3)n2)C1 [Compound 8, N-{[(3R)-1-(6-{[2-(3-fluorophenyl)ethyl]amino}-5-[N-(3-pyridylmethyl)carbamoyl](2-pyridyl))pyrrolidin-3-yl]methyl}-N-methylacetamide]
  IC50: 47.6 µM

## CN(C)C[C@@H]1CCN(c2ccc(C(=O)NCc3cccnc3)c(NCCc3cccc(F)c3)n2)C1 [Compound 9, (6-{(3S)-3-[(dimethylamino)methyl]pyrrolidinyl}-2-{[2-(3-fluorophenyl)ethyl]amino}(3-pyridyl))-N-(3-pyridylmethyl)carboxamide]
  IC50: 75.1 µM

## O=C(NCc1cccnc1)c1ccc(N2CCCCC2=O)nc1NCCc1cccc(F)c1 [Compound 10, (2-{[2-(3-fluorophenyl)ethyl]amino}-6-(2-oxopiperidyl)(3-pyridyl))-N-(3-pyridylmethyl)carboxamide]
  IC50: 5.4 µM

## NC[C@@H]1CCN(c2ccc(C(=O)NCc3cccnc3)c(NCCc3cccc(F)c3)n2)C1 [Compound 11, (6-[(3S)-3-(aminomethyl)pyrrolidinyl]-2-{[2-(3-fluorophenyl)ethyl]amino}(3-pyridyl))-N-(3-pyridylmethyl)carboxamide]
  IC50: 16.9 µM

## Nc1ccc(CNC(=O)c2ccc(N3CCCC3)nc2NCCc2cccc(F)c2)cn1 [Compound 12, N-[(6-amino(3-pyridyl))methyl](2-{[2-(3-fluorophenyl)ethyl]amino}-6-pyrrolidinyl(3-pyridyl))carboxamide]
  IC50: 0.243 µM

## NC(=O)CCNC(=O)c1ccc(N2CCCC2)nc1NCCc1cccc(F)c1 [Compound 13, N-(2-carbamoylethyl)(2-{[2-(3-fluorophenyl)ethyl]amino}-6-pyrrolidinyl(3-pyridyl))carboxamide]
  IC50: 1.59 µM

## O=C(NCc1cccnc1)c1ccc(N2CC[C@@H](O)C2)nc1NCCc1cccc(F)c1 [Compound 14, (6-((3R)-3-hydroxypyrrolidinyl)-2-{[2-(3-fluorophenyl)ethyl]amino}(3-pyridyl))-N-(3-pyridylmethyl)carboxamide]
  IC50: 0.533 µM

## O=C(NCc1cccnc1)c1ccc(N2CCCC2=O)nc1NCCc1cccc(F)c1 [Compound 15, (2-{[2-(3-fluorophenyl)ethyl]amino}-6-(2-oxopyrrolidinyl)(3-pyridyl))-N-(3-pyridylmethyl)carboxamide]
  IC50: 4.56 µM

## O=C(NCc1cccnc1)c1ccc(N2CCCC2)nc1NCCc1cccc(F)c1 [Compound 16, (2-{[2-(3-fluorophenyl)ethyl]amino}-6-pyrrolidinyl(3-pyridyl))-N-(3-pyridylmethyl)carboxamide]
  IC50: 0.131 µM

## NC(=O)CCNC(=O)c1ccc(N2CC[C@@H](O)C2)nc1NCCc1cccc(F)c1 [Compound 17, (6-((3R)-3-hydroxypyrrolidinyl)-2-{[2-(3-fluorophenyl)ethyl]amino}(3-pyridyl))-N-(2-carbamoylethyl)carboxamide]
  IC50: 15.9 µM

## O=C(NCc1cccnc1)c1ccc(N2CC[C@H](O)C2)nc1NCCc1cccc(F)c1 [Compound 18, (6-((3S)-3-hydroxypyrrolidinyl)-2-{[2-(3-fluorophenyl)ethyl]amino}(3-pyridyl))-N-(3-pyridylmethyl)carboxamide]
  IC50: 1.02 µM

## O=C(NCc1cccnc1)c1ccc(N2CCC(CO)CC2)nc1NCCc1cccc(F)c1 [Compound 19, (2-{[2-(3-fluorophenyl)ethyl]amino}-6-[4-(hydroxymethyl)piperidyl](3-pyridyl))-N-(3-pyridylmethyl)carboxamide]
  IC50: 0.382 µM

## O=C(NCc1cccnc1)c1ccc(N2CC(O)CCC2=O)nc1NCCc1cccc(F)c1 (centres unmarked) [Compound 20, (2-{[2-(3-fluorophenyl)ethyl]amino}-6-(5-hydroxy-2-oxopiperidyl)(3-pyridyl))-N-(3-pyridylmethyl)carboxamide]
  IC50: 29.7 µM

## O=C1CN(c2ccc(C(=O)NCc3cccnc3)c(NCCc3cccc(F)c3)n2)CCN1 [Compound 21, (2-{[2-(3-fluorophenyl)ethyl]amino}-6-(3-oxopiperazinyl)(3-pyridyl))-N-(3-pyridylmethyl)carboxamide]
  IC50: 6.97 µM

## CN1CCN(c2ccc(C(=O)NCc3cccnc3)c(NCCc3cccc(F)c3)n2)CC1 [Compound 22, (2-{[2-(3-fluorophenyl)ethyl]amino}-6-(4-methylpiperazinyl)(3-pyridyl))-N-(3-pyridylmethyl)carboxamide]
  IC50: 59.9 µM

## O=C(NCc1cccnc1)c1ccc(N2CCC(CCO)CC2)nc1NCCc1cccc(F)c1 [Compound 23, (2-{[2-(3-fluorophenyl)ethyl]amino}-6-[4-(2-hydroxyethyl)piperidyl](3-pyridyl))-N-(3-pyridylmethyl)carboxamide]
  IC50: 0.471 µM

## CC(C)(C)OC(=O)N1CCN(c2ccc(C(=O)NCc3cccnc3)c(NCCc3cccc(F)c3)n2)C(=O)C1 [Compound 24, tert-butyl 4-(6-{[2-(3-fluorophenyl)ethyl]amino}-5-[N-(3-pyridylmethyl)carbamoyl](2-pyridyl))-3-oxopiperazinecarboxylate]
  IC50: 59.8 µM

## O=C(NCc1cccnc1)c1ccc(N2CCNCC2=O)nc1NCCc1cccc(F)c1 [Compound 25, (2-{[2-(3-fluorophenyl)ethyl]amino}-6-(2-oxopiperazinyl)(3-pyridyl))-N-(3-pyridylmethyl)carboxamide]
  IC50: 70.8 µM

## CN(C)C(=O)c1ccc(N2CCCCC2=O)nc1NCCc1cccc(F)c1 [Compound 26, (2-{[2-(3-fluorophenyl)ethyl]amino}-6-(2-oxopiperidyl)(3-pyridyl))-N,N-dimethylcarboxamide]
  IC50: 53.4 µM
